In brackets after ≈: the same amount, converted by molar mass. Where two headings read alike, the source gives them in different places.
Experiments:
human (hACC2) ACC2 = human (hACC2) ACC2 (Homo sapiens, UniProt O00763); assay: In vitro Acetyl-CoA Carboxylase (ACC) inhibition assay (ADP-Glo), hACC2; assay type: biochemical
Procedure: The detailed procedure is as follows. […] 10 μL ADP glo reagent was added. […] 20 μL kinase detection reagent was added.
“NA” stands for “not assayed.”

C. krusei ATCC 6258 = assay: Anti-Fungal (Candida) Activity Assay, broth microtiter MIC; assay type: cell-based; conditions: Pichia kudriavzevii, ATCC6258; 3 replicates, MIC recorded at 48 h; read-out: MIC C. krusei ATCC 6258
Procedure: (§1) Compounds of the present invention were evaluated in an Anti-Fungal Activity Assay. An exemplary procedure for the assay, which measures the susceptibility of various Candida species to anti-fungal compounds, follows. Compounds to be tested (including fluconazole and amphotericin B) were dissolved in DMSO to obtain a solution having a concentration of 1 mg/mL. […] All species were grown from frozen stock by directly plating on to freshly prepared Sabouraud Dextrose agar (BD, Difco) and incubated overnight in ambient air at 35° C. for 24 h. A direct suspension was prepared in RPMI 1640+MOPS (Lonza, Biowhittaker) by taking individual colonies from the overnight cultures using sterile swabs soaked in sterile saline. The concentration of the suspension was determined using pre-determined standard curves. […] Broth microtiter MIC challenge plates were prepared following CLSI guidelines (M27-A3, Vol. 28 No. 14). The original CLSI guidelines focused on reading Candida MICs after 48 h of incubation. As reading after only 24 h offers a clear advantage of patient care, QC limits are being established for all drugs at 24 h. That being said there are no known interpretive breakpoints for amphotericin B at 24 h and the current fluconazole interpretive breakpoints are based on a 48 h reading. The MIC for the test compounds were recorded at 48 h. All MIC determinations were achieved by visually comparing the growth found in the antibiotic challenged wells to that of the growth control.

C. albicans ATCC 90028 = assay: as above; assay type: cell-based; conditions: ATCC90028, 3 replicates, MIC recorded at 48 h, read-out: MIC C. albicans ATCC 90028
Procedure: as §1

[1] = system: C. parapsilosis ATCC 22019; assay: as above; assay type: cell-based; conditions: Lodderomyces parapsilosis, ATCC22019; 3 replicates, MIC recorded at 48 h; read-out: MIC C. parapsilosis ATCC 22019
Procedure: as §1

[2] = system: Collectotrichum graminicola (Cg); assay: Growth inhibition assay of fungal pathogens; assay type: cell-based; conditions: 48 h, read-out: Concentration at 90% Inhibition Cg
Procedure: (§2) Compounds of the present invention were evaluated in a growth inhibition assay to determine the ability to control the growth of fungal pathogens, such as Botrtyis cinerea (Bc), Collectotrichum graminicola (Cg). Diplodia maydis (Dm), Fusarium moniliforme (Fm), Fusarium virguliforme (Fv), Phytophthora capsici (Pc), Rhizoctonia solani (Rs), and Septoria tritici (St). Compounds to be tested were dissolved in DMSO at 2.5 mg/ml to produce compound stock solutions (“stocks”). Stocks were diluted with DMSO by a five-fold dilution in a 96-well stock plate, and two sets of final concentrations of 50, 10, and 2 ppm or 2, 0.4, and 0.08 ppm were obtained in vitro. A set of positive controls was also prepared, with various concentrations of Soraphen (2, 0.4, and 0.08 ppm), Metalaxyl (1.1, 0.22, and 0.04 ppm), and Metconazole (2, 0.4, and 0.08 ppm or 0.2, 0.04, and 0.008 ppm) after the five-fold dilutions. Negative controls on each plate included 2% DMSO, water, and a blank (media+2% DMSO). Fungal spores were isolated from previously sub-cultured plates of Botrtyis cinerea (Bc). Collectotrichum graminicola (Cg). Diplodia maydis (Dm), Fusarium moniliforme (Fm), Fusarium virguliforme (Fv), Phytophthora capsici (Pc), and Septoria tritici (St). The isolated spores were diluted to individual concentrations with a 17% V8 liquid media. For Rhizoctonia solani (Rs) and Pythium irregulare, 1.5 mm mycelial plugs were used in place of spores and ¼ Potato Dextrose Broth (PDB) was used for dilution. The spore concentrations and plug sizes were based on growth curves generated at 48 hours for each pathogen. In a second 96-well plate, the spores or mycelial plugs, media, diluted compound solutions, and controls were combined. Once the compound was added, a true final concentration of compound in each well was measured by an OD600 reading, which adjusted for any compound precipitation that might have occurred in the well. Plate readings were repeated at both 24 and 48 hours. The blank negative control was used as a background subtraction. Additional visual ratings were performed at both 24 and 48 hours for checking on precipitation and confirming efficacy. Visual and OD600 ratings of the compounds at 48 hours were compared to the 2% DMSO negative control, and the percent of pathogen growth inhibition was determined based on those values.

[3] = system: Fusarium virguliforme (Fv); assay: Growth inhibition assay of fungal pathogens; assay type: cell-based; conditions: 48 h, 48 hours, read-out: Concentration at 90% Inhibition Fv
Procedure: as §2

[4] = system: Phytophthora capsici (Pc); assay: Growth inhibition assay of fungal pathogens; assay type: cell-based; conditions: 48 hours; for IC90: Phytophthora capsici, Table 4a, read-out: Concentration at 90% Inhibition Pc; for Concentration at 90% Inhibition Pc: Table 4b
Procedure: as §2

Septoria tritici (St) = assay: Growth inhibition assay of fungal pathogens; assay type: cell-based; conditions: 48 hours; for Concentration at 90% Inhibition St: Table 4b; for IC90: Zymoseptoria tritici, Table 4a, read-out: Concentration at 90% Inhibition St
Procedure: as §2

[5] = system: Fusarium moniliforme (Fm); assay: Growth inhibition assay of fungal pathogens; assay type: cell-based; conditions: Fusarium verticillioides, 48 h, 48 hours, read-out: Concentration at 90% Inhibition Fm
Procedure: as §2

Diplodia maydis (Dm) = assay: Growth inhibition assay of fungal pathogens; assay type: cell-based; conditions: Stenocarpella maydis, 48 h, read-out: Concentration at 90% Inhibition Dm
Procedure: as §2

Botrtyis cinerea (Bc) = assay: Growth inhibition assay of fungal pathogens; assay type: cell-based; conditions: 48 h, read-out: Concentration at 90% Inhibition Bc
Procedure: as §2

Rhizoctonia solani (Rs) = assay: Growth inhibition assay of fungal pathogens; assay type: cell-based; conditions: 48 h, read-out: Concentration at 90% Inhibition Rs
Procedure: as §2

Sequence of human (hACC2) ACC2 (O00763 whole entry): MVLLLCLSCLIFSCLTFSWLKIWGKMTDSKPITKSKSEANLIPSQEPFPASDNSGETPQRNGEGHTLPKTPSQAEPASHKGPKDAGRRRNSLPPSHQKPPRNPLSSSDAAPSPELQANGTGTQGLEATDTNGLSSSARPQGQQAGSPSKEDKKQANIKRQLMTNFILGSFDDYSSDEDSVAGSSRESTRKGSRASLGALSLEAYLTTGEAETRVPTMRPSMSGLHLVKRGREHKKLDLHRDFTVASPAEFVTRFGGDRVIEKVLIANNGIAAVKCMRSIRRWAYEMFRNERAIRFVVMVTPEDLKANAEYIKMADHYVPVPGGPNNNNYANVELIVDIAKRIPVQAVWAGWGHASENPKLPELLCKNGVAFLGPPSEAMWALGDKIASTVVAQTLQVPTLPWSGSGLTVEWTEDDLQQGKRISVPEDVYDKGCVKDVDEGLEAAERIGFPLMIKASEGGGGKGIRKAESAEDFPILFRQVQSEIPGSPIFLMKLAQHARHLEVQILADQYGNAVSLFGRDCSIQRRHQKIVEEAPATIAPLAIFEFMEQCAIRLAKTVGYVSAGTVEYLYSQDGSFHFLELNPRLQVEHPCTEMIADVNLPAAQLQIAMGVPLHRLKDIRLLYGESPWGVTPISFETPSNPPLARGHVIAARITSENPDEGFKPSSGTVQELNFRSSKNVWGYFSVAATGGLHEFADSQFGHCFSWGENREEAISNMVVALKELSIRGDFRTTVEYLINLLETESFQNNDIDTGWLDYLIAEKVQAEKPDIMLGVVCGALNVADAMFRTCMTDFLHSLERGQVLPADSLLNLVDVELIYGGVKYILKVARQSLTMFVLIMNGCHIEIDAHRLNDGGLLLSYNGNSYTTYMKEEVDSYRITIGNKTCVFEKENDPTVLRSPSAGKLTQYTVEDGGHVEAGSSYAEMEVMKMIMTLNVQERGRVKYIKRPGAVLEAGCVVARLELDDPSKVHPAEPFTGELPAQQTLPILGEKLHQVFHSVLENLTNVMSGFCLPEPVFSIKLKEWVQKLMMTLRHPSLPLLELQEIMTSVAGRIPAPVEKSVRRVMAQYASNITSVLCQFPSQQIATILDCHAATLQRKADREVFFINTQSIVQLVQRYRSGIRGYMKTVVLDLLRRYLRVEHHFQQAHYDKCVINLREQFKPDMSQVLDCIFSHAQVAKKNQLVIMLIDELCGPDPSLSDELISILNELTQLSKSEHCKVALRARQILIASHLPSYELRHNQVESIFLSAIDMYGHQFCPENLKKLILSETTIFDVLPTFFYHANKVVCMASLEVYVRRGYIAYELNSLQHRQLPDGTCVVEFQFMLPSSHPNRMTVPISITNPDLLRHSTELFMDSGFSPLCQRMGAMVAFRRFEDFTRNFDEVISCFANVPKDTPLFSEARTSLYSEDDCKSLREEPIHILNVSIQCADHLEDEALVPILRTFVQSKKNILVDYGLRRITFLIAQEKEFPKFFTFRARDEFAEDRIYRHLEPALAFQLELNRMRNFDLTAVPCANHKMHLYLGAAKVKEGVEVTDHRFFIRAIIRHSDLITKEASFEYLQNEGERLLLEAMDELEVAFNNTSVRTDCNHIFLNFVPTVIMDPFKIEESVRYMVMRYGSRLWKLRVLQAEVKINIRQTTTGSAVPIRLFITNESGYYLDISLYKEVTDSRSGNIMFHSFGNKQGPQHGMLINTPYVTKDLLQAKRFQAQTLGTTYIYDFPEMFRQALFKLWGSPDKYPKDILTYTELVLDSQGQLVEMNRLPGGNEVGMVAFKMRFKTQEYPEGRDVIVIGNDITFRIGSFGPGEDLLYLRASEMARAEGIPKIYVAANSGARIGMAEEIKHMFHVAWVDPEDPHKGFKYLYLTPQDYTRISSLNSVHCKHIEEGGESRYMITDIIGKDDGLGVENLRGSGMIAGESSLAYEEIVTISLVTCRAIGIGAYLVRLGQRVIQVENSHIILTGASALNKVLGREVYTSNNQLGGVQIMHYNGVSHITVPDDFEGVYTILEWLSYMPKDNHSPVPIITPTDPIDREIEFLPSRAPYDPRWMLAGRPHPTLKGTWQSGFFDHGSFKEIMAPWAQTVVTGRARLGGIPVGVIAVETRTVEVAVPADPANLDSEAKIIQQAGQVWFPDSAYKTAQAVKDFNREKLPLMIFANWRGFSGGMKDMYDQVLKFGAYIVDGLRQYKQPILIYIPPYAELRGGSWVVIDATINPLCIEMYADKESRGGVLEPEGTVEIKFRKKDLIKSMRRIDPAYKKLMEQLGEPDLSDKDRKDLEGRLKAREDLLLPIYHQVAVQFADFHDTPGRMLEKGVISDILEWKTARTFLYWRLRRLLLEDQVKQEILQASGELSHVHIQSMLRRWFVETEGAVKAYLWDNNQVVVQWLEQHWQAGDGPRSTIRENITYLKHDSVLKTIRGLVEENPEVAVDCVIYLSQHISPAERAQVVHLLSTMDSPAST

| Compound | IC50 (human (hACC2) ACC2) | MIC (C. krusei ATCC 6258) | MIC (C. albicans ATCC 90028) | MIC [1] | IC90 ([2]; Table 4a) | IC90 ([2]; Table 4b) | IC90 ([3]; Table 4a) | IC90 ([3]; Table 4b) | IC90 [4] | Concentration at 90% Inhibition Pc [4] | Concentration at 90% Inhibition St (Septoria tritici (St)) | IC90 (Septoria tritici (St)) | IC90 ([5]; Table 4a) | IC90 ([5]; Table 4b) | IC90 (Diplodia maydis (Dm); Table 4a) | IC90 (Diplodia maydis (Dm); Table 4b) | IC90 (Botrtyis cinerea (Bc); Table 4a) | IC90 (Botrtyis cinerea (Bc); Table 4b) | IC90 (Rhizoctonia solani (Rs); Table 4a) | IC90 (Rhizoctonia solani (Rs); Table 4b) |
| --- | --- | --- | --- | --- | --- | --- | --- | --- | --- | --- | --- | --- | --- | --- | --- | --- | --- | --- | --- | --- |
| COc1ccc(F)cc1[C@H](Cn1c(=O)n(C(C)(C)C(=O)NC(C)C)c(=O)c2c(C)c(-n3cccn3)sc21)O[C@H]1CC[C@@H](O)CC1 [Compound I-14, 2-(1-((R)-2-(5-fluoro-2-methoxyphenyl)-2-(((1s,4S)-4-hydroxycyclohexyl)oxy)ethyl)-5-methyl-2,4-dioxo-6-(1H-pyrazol-1-yl)-1,4-dihydro-thieno[2,3-d]pyrimidin-3(2H)-yl)-N-isopropyl-2-methylpropanamide] | 3 to 10 nM | 1.1 to 2 µg/mL (≈ 1.71 to 3.12 µM) | 0.25 to 1 µg/mL (≈ 0.39 to 1.56 µM) | 0.25 to 1 µg/mL (≈ 0.39 to 1.56 µM) | > 50 µg/mL | > 50 µg/mL | 2 µg/mL (≈ 3.12 µM) | 2 µg/mL (≈ 3.12 µM) | > 50 µg/mL | D (“D” provided a compound concentration of >50 ppm at 90% inhibition of fungal pathogens) | D (“D” provided a compound concentration of >50 ppm at 90% inhibition of fungal pathogens) | > 50 µg/mL | 0.08 µg/mL (≈ 0.125 µM) | 0.08 µg/mL (≈ 0.125 µM) | 2 µg/mL (≈ 3.12 µM) | 2 µg/mL (≈ 3.12 µM) | 0.4 µg/mL (≈ 0.623 µM) | 0.4 µg/mL (≈ 0.623 µM) | 2 µg/mL (≈ 3.12 µM) | 2 µg/mL (≈ 3.12 µM) |
| COc1ccc(F)cc1[C@H](Cn1c(=O)n(C(C)(C)C(=O)N2CCCC2)c(=O)c2c(C)c(-n3cccn3)sc21)O[C@H]1CC[C@@H](O)CC1 [Compound I-15, 1-((R)-2-(5-fluoro-2-methoxyphenyl)-2-(((1s,4S)-4-hydroxycyclohexyl)oxy)ethyl)-5-methyl-3-(2-methyl-1-oxo-1-(pyrrolidin-1-yl)pro-pan-2-yl)-6-(1H-pyrazol-1-yl)thieno[2,3-d]pyrimidine-2,4(1H,3H)-dione] | 3 to 10 nM | 1.1 to 2 µg/mL (≈ 1.68 to 3.06 µM) | 0.25 to 1 µg/mL (≈ 0.382 to 1.53 µM) | 0.25 to 1 µg/mL (≈ 0.382 to 1.53 µM) | > 50 µg/mL | 10 µg/mL (≈ 15.3 µM) | 2 µg/mL (≈ 3.06 µM) | 2 µg/mL (≈ 3.06 µM) | > 50 µg/mL | D (“D” provided a compound concentration of >50 ppm at 90% inhibition of fungal pathogens) | D (“D” provided a compound concentration of >50 ppm at 90% inhibition of fungal pathogens) | > 50 µg/mL | 0.4 µg/mL (≈ 0.612 µM) | 0.4 µg/mL (≈ 0.612 µM) | > 50 µg/mL | 10 µg/mL (≈ 15.3 µM) | 2 µg/mL (≈ 3.06 µM) | 2 µg/mL (≈ 3.06 µM) | > 50 µg/mL | 10 µg/mL (≈ 15.3 µM) |

Source: patent US10941158B2, “Pyrazole ACC inhibitors and uses thereof” (Gilead Apollo, LLC, priority 2015, dated 2021)
